Laboratory results as given in ChEMBL document CHEMBL5678818, “Discovery of potent SOS1 inhibitors that block RAS activation via disruption of the RAS-SOS1 interaction” (Proc Natl Acad Sci U S A, 2019).

Columns and labels:
[1] = biological target: T1, Dual specificity mitogen-activated protein kinase kinase 7 (Homo sapiens) (UniProt O14733); assay: Inhibition of MKK7 (unknown origin) assessed as residual activity at 100 nM by KINOMEscan analysis relative to control
T1 sequence (whole entry): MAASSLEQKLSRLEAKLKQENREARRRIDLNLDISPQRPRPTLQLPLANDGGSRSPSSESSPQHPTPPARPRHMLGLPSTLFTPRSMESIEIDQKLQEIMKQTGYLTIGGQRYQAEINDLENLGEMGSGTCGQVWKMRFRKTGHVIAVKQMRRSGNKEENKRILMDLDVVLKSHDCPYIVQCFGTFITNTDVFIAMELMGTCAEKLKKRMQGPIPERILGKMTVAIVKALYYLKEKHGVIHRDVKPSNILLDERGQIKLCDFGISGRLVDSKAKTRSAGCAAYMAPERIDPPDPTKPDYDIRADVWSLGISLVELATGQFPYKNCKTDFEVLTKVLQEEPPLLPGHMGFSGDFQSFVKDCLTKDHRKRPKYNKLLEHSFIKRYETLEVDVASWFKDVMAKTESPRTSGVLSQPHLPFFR

[2] = biological target: Ephrin type-A receptor 4 (Homo sapiens) (UniProt P54764); assay: Inhibition of EPHA4 (unknown origin) assessed as residual activity at 100 nM by KINOMEscan analysis relative to control
Sequence of Ephrin type-A receptor 4 (Homo sapiens) (P54764 whole entry): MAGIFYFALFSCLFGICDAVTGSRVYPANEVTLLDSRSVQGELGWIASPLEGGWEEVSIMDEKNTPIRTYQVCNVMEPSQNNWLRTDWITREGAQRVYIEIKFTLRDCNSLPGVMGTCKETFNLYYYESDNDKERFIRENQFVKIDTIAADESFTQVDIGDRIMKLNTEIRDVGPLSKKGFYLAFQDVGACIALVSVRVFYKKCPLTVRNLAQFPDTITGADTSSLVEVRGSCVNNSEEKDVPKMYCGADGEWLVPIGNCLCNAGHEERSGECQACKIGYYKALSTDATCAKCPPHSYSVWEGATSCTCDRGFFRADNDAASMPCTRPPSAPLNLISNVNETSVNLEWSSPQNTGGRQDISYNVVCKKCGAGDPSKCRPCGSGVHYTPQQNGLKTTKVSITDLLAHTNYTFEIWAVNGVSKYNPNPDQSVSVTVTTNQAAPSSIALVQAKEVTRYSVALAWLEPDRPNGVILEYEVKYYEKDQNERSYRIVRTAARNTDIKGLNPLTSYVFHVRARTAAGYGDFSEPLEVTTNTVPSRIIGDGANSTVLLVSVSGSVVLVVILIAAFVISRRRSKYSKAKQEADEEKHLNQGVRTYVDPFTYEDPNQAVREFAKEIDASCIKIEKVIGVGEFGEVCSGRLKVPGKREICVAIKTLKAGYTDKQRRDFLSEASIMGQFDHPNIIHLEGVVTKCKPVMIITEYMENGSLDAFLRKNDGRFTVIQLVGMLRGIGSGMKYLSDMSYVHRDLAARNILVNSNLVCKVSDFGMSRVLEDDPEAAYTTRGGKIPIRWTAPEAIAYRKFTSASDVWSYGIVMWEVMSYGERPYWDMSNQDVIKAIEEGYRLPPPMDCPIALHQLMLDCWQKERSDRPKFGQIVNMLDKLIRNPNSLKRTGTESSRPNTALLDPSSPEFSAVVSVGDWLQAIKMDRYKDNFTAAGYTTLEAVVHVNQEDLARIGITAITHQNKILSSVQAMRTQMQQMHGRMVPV

[3] = system: Epidermal growth factor receptor (Homo sapiens), P00533 [UNDEFINED MUTATION]; assay: Inhibition of EGFR E746-A750del mutant (unknown origin) assessed as residual activity at 100 nM by KINOMEscan analysis relative to control
Sequence of Epidermal growth factor receptor (Homo sapiens), P00533 [UNDEFINED MUTATION] (P00533 whole entry, looked up, stated change not applied): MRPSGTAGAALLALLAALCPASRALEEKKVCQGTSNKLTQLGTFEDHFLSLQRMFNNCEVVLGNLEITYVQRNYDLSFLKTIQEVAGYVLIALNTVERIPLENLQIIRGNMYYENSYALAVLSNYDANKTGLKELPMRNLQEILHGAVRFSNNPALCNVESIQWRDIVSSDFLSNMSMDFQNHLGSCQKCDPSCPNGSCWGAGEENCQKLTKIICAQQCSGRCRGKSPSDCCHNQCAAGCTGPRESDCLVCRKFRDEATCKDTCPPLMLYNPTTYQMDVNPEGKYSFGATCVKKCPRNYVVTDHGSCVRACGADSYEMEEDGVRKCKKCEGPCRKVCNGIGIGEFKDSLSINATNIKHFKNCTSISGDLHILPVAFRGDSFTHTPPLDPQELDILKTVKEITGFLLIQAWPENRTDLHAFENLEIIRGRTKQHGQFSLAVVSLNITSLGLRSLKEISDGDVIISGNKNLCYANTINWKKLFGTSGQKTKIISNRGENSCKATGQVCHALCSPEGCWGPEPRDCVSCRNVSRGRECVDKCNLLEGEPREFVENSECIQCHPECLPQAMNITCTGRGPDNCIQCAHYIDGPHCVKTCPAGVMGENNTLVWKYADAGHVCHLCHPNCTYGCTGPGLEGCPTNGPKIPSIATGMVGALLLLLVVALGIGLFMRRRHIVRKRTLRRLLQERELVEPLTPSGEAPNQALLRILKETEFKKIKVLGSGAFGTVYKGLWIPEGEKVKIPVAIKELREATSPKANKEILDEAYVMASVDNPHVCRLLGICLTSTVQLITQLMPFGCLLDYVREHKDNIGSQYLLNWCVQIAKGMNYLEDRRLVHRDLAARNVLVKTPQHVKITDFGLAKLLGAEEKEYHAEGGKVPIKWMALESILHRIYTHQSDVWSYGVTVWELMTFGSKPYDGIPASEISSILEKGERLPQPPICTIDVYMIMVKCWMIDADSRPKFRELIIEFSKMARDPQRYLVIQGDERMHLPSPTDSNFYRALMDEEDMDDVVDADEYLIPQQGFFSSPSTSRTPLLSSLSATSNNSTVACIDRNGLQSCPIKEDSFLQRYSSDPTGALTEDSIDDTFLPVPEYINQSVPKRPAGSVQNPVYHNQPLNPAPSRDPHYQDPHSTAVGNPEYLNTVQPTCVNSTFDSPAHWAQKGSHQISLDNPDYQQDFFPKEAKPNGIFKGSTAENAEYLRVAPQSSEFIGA

[4] = biological target: T2, cGMP-dependent protein kinase 1 (Homo sapiens) (UniProt Q13976); assay: Inhibition of PRKG1 (unknown origin) assessed as residual activity at 100 nM by KINOMEscan analysis relative to control
T2 sequence (whole entry): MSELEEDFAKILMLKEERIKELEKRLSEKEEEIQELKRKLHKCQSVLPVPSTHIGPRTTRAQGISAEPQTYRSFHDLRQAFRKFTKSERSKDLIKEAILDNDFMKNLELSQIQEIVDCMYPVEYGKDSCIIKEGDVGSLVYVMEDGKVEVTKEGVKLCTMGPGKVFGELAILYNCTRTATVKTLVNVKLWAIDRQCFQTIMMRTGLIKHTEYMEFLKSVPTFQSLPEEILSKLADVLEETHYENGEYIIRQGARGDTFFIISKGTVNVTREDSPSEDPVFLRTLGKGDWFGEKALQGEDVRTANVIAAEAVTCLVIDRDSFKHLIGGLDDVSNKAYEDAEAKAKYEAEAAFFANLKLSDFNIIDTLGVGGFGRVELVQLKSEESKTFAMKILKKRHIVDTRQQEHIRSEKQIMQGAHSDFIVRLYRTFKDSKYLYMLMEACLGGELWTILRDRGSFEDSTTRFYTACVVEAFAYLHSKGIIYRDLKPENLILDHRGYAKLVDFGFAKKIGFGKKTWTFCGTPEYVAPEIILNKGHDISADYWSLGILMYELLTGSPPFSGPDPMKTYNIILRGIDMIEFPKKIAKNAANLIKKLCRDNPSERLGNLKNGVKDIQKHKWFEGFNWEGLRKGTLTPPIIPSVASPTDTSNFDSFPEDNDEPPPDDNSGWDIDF

[5] = biological target: Fibroblast growth factor receptor 3 (Homo sapiens) (UniProt P22607); assay: Inhibition of FGFR3 (unknown origin) assessed as residual activity at 100 nM by KINOMEscan analysis relative to control
Sequence of Fibroblast growth factor receptor 3 (Homo sapiens) (P22607 23-806 limits assumed): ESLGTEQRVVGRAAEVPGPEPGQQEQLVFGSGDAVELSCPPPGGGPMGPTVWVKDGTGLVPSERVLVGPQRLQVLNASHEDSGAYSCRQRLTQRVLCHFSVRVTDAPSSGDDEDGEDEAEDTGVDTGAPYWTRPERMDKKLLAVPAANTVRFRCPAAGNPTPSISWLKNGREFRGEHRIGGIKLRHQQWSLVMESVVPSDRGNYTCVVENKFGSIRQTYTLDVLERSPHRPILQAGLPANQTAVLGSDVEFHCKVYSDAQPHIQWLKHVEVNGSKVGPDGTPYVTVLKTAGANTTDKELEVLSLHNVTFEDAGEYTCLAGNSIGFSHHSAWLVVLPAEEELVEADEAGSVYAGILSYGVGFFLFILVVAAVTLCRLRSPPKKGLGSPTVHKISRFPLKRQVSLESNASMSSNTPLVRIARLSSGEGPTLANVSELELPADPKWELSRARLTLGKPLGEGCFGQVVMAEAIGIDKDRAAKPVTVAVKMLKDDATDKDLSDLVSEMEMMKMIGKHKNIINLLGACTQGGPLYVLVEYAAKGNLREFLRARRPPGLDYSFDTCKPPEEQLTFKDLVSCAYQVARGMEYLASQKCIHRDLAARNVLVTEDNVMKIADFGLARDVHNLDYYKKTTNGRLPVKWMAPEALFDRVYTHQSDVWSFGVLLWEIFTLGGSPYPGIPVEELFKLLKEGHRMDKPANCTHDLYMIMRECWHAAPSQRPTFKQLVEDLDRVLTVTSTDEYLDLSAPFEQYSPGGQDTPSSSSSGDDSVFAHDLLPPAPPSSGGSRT

[6] = biological target: T3, Serine/threonine-protein kinase Nek10 (Homo sapiens) (UniProt Q6ZWH5); assay: Inhibition of NEK10 (unknown origin) assessed as residual activity at 100 nM by KINOMEscan analysis relative to control
T3 sequence (whole entry): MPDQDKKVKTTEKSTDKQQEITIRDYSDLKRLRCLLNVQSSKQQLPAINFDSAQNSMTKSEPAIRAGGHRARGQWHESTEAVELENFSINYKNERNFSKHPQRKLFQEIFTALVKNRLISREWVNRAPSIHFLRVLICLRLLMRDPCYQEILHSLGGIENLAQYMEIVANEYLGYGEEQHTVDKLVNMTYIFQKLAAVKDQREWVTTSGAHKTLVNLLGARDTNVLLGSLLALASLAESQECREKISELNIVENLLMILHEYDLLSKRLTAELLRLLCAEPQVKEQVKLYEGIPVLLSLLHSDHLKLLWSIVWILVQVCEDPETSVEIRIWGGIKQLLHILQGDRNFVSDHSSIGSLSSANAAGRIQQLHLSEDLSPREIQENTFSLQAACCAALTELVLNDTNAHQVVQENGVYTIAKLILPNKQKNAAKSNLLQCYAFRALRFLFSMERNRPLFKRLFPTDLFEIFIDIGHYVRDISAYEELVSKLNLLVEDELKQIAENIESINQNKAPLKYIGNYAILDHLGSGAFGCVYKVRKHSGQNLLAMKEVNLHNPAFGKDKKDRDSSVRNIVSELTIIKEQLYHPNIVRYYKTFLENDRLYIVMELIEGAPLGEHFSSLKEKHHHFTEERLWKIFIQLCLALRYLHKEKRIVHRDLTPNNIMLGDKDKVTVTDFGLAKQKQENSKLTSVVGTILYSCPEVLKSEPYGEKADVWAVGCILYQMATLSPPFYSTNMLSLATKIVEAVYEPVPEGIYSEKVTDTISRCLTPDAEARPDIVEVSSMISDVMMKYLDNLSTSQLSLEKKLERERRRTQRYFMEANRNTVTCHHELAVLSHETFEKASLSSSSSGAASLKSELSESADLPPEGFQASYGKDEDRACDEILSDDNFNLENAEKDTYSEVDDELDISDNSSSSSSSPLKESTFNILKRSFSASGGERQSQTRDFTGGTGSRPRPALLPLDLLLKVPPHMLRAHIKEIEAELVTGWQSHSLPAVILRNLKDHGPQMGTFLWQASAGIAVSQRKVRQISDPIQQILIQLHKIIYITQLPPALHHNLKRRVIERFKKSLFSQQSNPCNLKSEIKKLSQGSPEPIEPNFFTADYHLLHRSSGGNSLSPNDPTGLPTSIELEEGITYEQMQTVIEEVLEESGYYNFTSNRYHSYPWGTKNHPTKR

[7] = biological target: Serine/threonine-protein kinase PAK 3 (Homo sapiens) (UniProt O75914); assay: Inhibition of PAK3 (unknown origin) assessed as residual activity at 100 nM by KINOMEscan analysis relative to control
Sequence of Serine/threonine-protein kinase PAK 3 (Homo sapiens) (O75914 whole entry, looked up): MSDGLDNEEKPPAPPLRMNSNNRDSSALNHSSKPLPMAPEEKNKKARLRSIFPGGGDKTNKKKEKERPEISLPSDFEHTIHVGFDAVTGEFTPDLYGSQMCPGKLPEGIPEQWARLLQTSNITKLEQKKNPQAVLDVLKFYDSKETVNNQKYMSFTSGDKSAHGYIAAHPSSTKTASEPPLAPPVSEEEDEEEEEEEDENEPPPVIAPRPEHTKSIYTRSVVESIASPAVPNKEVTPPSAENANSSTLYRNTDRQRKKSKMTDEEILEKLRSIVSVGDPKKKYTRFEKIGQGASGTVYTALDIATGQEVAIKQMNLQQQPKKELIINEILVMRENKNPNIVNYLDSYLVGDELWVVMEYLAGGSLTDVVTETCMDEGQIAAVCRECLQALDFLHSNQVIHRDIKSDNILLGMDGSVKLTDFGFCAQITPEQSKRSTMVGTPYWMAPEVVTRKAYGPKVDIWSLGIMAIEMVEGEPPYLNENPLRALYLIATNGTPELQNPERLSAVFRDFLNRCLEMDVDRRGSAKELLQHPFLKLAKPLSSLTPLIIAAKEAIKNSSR

[8] = biological target: G protein-coupled receptor kinase 4 (Homo sapiens) (UniProt P32298); assay: Inhibition of GRK4 (unknown origin) assessed as residual activity at 100 nM by KINOMEscan analysis relative to control
Sequence of G protein-coupled receptor kinase 4 (Homo sapiens) (P32298 whole entry, looked up, the tested form may be a part): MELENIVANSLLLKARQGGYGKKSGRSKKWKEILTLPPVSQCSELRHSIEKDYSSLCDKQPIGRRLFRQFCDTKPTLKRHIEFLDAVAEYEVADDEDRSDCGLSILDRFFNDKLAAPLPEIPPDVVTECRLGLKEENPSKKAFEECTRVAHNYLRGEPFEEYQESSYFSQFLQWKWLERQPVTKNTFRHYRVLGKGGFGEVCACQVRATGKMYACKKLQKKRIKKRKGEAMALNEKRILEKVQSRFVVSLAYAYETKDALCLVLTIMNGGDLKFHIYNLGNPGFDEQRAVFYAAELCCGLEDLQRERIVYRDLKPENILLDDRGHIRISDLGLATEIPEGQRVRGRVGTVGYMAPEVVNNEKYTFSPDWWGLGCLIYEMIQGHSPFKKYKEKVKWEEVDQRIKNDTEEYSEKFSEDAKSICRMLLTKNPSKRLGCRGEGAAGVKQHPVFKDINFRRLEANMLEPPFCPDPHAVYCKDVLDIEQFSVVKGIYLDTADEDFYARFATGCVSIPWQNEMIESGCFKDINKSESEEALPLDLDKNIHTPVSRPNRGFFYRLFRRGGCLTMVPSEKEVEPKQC

Homo sapiens = species: Homo sapiens; assay: Inhibition of N-terminal GST-tagged recombinant human SOS1 S876K mutant (564 to 1049 residues) expressed in Escherichia coli assessed as reduction in KRAS G12C mutant activation at 10 uM by HTRF analysis relative to control
[9] = system: Epidermal growth factor receptor (Homo sapiens), P00533 [UNDEFINED MUTATION]; assay: Inhibition of EGFR L747-T751del/Sins mutant (unknown origin) assessed as residual activity at 100 nM by KINOMEscan analysis relative to control

COc1cc2ncnc(N[C@H](C)c3cccc4ccccc34)c2cc1OC
Activity [1]: 77% | Activity [2]: 86% | Activity [3]: 88% | Activity [4]: 96% | Activity [5]: 72% | Activity [6]: 75% | Activity [7]: 74% | Activity [8]: 62% | inhibition (Homo sapiens): 102% | Activity [9]: 80%
